Assay results published in article PMC8999638, “Identification of Entry Inhibitors against Delta and Omicron Variants of SARS-CoV-2” (International Journal of Molecular Sciences, 2022).
Several values for one entry are separate records, joined by “and”; a condition that tells them apart may be missing. Equal entries are not always repeated. Structures can show the parent of a compound that is named as a salt. Where two headings read alike, the source gives them in different places.

Key:
NanoBiT = assay: Negative screening HiBiT assay (NanoBiT activity); assay type: cell-based; settings: for Negative Screening HiBiT Assay % Inhibition (20 μM): 20 μM drug; for Negative Screening HiBiT Assay % Inhibition (100 μM): 100 μM drug; for Negative Screening HiBiT Assay INHIBIT NanoBiT: >70% inhibition in 100 μM, then including >35% inhibition at 20 μM
[1] = molecular target: RBD-ACE2 attachment (RBD of viral spike protein and ACE2 receptor) (Severe acute respiratory syndrome coronavirus 2, UniProt P0DTC2); assay: cell-based; parameters: species or system SARS-CoV-2; human; settings: for inhibition at 20 µM / inhibition at 100 µM: HeLa; for inhibition at 20 µM: read-out: Positive Screening RBD Attachment Assay % Inhibition (20 μM); for inhibition at 100 µM: read-out: Positive Screening RBD Attachment Assay % Inhibition (100 μM)
in vitro = settings: African green monkey
VERO E6 cells = settings: for CC50: read-out: VeroE6 CC50, VERO E6 cells, CellTiter-Glo
[2] = test system: spike-based pseudovirus (wild type) on SmBiT-ACE2 HeLa cells; assay: microbe, parasite or virus in culture; assay type: cell-based, SARS-CoV-2
SARS-CoV-2 = assay: microbe, parasite or virus in culture; assay type: cell-based; settings: for EC50: Severe acute respiratory syndrome coronavirus 2, Vero C1008, 120 h, read-out: EC50 SARS-CoV-2 PRNT
[3] = VeroE6 CC50, VERO E6 cells, CellTiter-Glo
[4] = Pseudovirus, HeLa, read-out: EC50 Pseudovirus Wild Type

Compound	Negative Screening HiBiT Assay % Inhibition (20 μM) (NanoBiT)	Negative Screening HiBiT Assay % Inhibition (100 μM) (NanoBiT)	Negative Screening HiBiT Assay INHIBIT NanoBiT (NanoBiT)	Positive Screening RBD Attachment Assay Dose Response [1]	inhibition at 20 µM [1]	inhibition at 100 µM [1]	CC50 (in vitro; [3])	further results
CC1(C)CCC(CN2CCN(c3ccc(C(=O)NS(=O)(=O)c4ccc(NCC5CCOCC5)c([N+](=O)[O-])c4)c(Oc4cnc5[nH]ccc5c4)c3)CC2)=C(c2ccc(Cl)cc2)C1 [ABT-199]	0%	43%	No	Yes	51%	96%	17.3 µM	EC50 [1]: 39.1 µM
O=C1CCc2ccc(OCCCCN3CCN(c4cccc(Cl)c4Cl)CC3)cc2N1 [Aripiprazole]	13%	21%	No				14 µM	
O=C1C(O)=C([C@H]2CC[C@H](c3ccc(Cl)cc3)CC2)C(=O)c2ccccc21 [Atovaquone]	54%	96%	Yes	Yes	39%	95%		
CCCC(=O)OCOC(=O)C1=C(C)NC(C)=C(C(=O)OC)C1c1cccc(Cl)c1Cl (centres unmarked) [Clevidipine butyrate]	79%	93%	Yes	Yes				Positive Screening RBD Attachment Assay % Inhibition (20 μM) [1]: 69%; Positive Screening RBD Attachment Assay % Inhibition (100 μM) [1]: 93%
CN(C)c1ccc(C(=C2C=CC(=[N+](C)C)C=C2)c2ccc(N(C)C)cc2)cc1 [Crystal Violet]	17%	86%	Yes	Yes	73%	99%		
CC(C)(C)c1nc(-c2cccc(NS(=O)(=O)c3c(F)cccc3F)c2F)c(-c2ccnc(N)n2)s1 [Dabrafenib (GSK2118436), Dabrafenib]	88%	97%	Yes	Yes	85%	96%		
C[C@@H]1CCO[C@H]2Cn3cc(C(=O)NCc4ccc(F)cc4F)c(=O)c(O)c3C(=O)N12 [Dolutegravir sodium]	1%	62%	No	Yes	> 70%	96%	> 100 µM	Cytotoxicity to VeroE6 cells (VERO E6 cells; VeroE6 cells): not toxic; EC50 ([2]; Pseudovirus, HeLa, read-out: EC50 (nM) (Wild type)): 22.9 nM; EC50 [2, 4]: 40 nM; EC50 [1]: 14.6 µM; EC50 (SARS-CoV-2): 4.2 µM
CCCCc1oc2ccc(NS(C)(=O)=O)cc2c1C(=O)c1ccc(OCCCN(CCCC)CCCC)cc1 [Dronedarone hydrochloride]	21%	86%	Yes	Yes	41%	93%		
Cc1cc(C#N)cc(C)c1Oc1nc(Nc2ccc(C#N)cc2)nc(N)c1Br [Etravirine]	0%	31%	No	Yes	> 70%	90%	> 100 µM	Cytotoxicity to VeroE6 cells (VERO E6 cells; VeroE6 cells): not toxic; EC50 [2, 4]: 6 nM; EC50 ([2]; Pseudovirus, HeLa, read-out: EC50 pseudovirus neutralization assay): 5.8 nM; EC50 [1]: 2.3 µM; EC50 (SARS-CoV-2): 7.7 µM
CCOC(=O)C1=C(C)NC(C)=C(C(=O)OC)C1c1cccc(Cl)c1Cl (centres unmarked) [Felodipine]	88%	99%	Yes	Yes	63%	96%		
CC[C@H](C)[C@H]1O[C@]2(CC[C@@H]1C)C[C@@H]1C[C@@H](C/C=C(\C)[C@@H](O[C@H]3C[C@H](OC)[C@@H](O[C@H]4C[C@H](OC)[C@@H](O)[C@H](C)O4)[C@H](C)O3)[C@@H](C)/C=C/C=C3\CO[C@@H]4[C@H](O)C(C)=C[C@@H](C(=O)O1)[C@]34O)O2 [Ivermectin]	0%	4%	No	Yes	29%	68%	11.9 µM	EC50 [2, 4]: 5900 nM; EC50 ([1]; read-out: EC50 RBD Attachment): 22.8 µM; blocked SARS-CoV-2 infection (PRNT) (SARS-CoV-2; 10 μM): 60%
Clc1ccc(COC(Cn2ccnc2)c2ccc(Cl)cc2Cl)c(Cl)c1 (centres unmarked) [Miconazole nitrate]	3%	12%	No					CC50 (VERO E6 cells): 16.9 µM
Clc1ccc(COC(Cn2ccnc2)c2ccc(Cl)cc2Cl)c(Cl)c1 (centres unmarked) [Miconazole]	6%	15%	No				14 µM	
COC(=O)C1=C(C)NC(C)=C(C(=O)OCCN(C)Cc2ccccc2)C1c1cccc([N+](=O)[O-])c1 (centres unmarked) [Nicardipine hydrochloride]	64%	88%	Yes	Yes	58%	86%		
COCCOC(=O)C1=C(C)NC(C)=C(C(=O)OC(C)C)C1c1cccc([N+](=O)[O-])c1 (centres unmarked) [Nimodipine]	79%	97%	Yes	Yes	64%	96%		
CC(=O)Oc1ccccc1C(=O)Nc1ncc([N+](=O)[O-])s1 [Nitazoxanide]	77%	95%	Yes	Yes	69%	93%		
OCCOc1ccc(/C(=C(/CCCl)c2ccccc2)c2ccccc2)cc1 [Ospemifene]	3%	8%	No	Yes	39%	68%		Cytotoxicity to VeroE6 cells (VERO E6 cells): not toxic; EC50 ([1]; EC50 RBD Attachment): 56.2 µM; CC50 (in vitro; VeroE6 CC50): > 100 µM
Nc1ccc(/N=N/c2ccccc2)c(N)n1 [Phenazopyridine hydrochloride]	48%	83%	Yes	Yes	52%	91%		
CCCCCCCCCCCCCCCC[N+](C)(C)CCN(Cc1ccc(OC)cc1)c1ncccn1 [Thonzonium Bromide]	36%	52%	Yes	Yes	93%	99%		
Gramicidin	0%	35%	No	Yes				CC50 (VERO E6 cells): 3.9 µM; EC50 ([2]; read-out: EC50 Pseudovirus Wild Type): ~1200 nM and 1200 nM; Positive Screening RBD Attachment Assay % Inhibition (100 μM) [1]: 95%; EC50 ([1]; read-out: EC50 RBD Attachment): 5.3 µM
